Test results: ChEMBL document CHEMBL3137667, “[Drug-induced liver injury; fourteenth updated edition of the bibliographic database of liver injuries and related drugs]” (Gastroenterol Clin Biol, 2004)

Key:
[1] = human, serum
[2] = Times to onset, minimal and maximal, observed in the indexed observations. [column 'DELAI' in source]; settings: human
[3] = human
[4] = human; remark: listed apart in the source
[5] = human; remark: listed apart in the source
[6] = Comments (NB not yet translated). [column 'COMMENTAIRES' in source]; settings: human
[7] = Highest frequency of moderate liver toxicity observed during clinical trials, expressed as a percentage. [column '% BIOL' in source]; settings: human
[8] = human, serum, 4383 h
[9] = human; remark: listed apart in the source
[10] = human; remark: listed apart in the source
[11] = Highest frequency of acute liver toxicity observed during clinical trials, expressed as a percentage. [column '% AIGUE' in source]; settings: human
[12] = human; remark: listed apart in the source
[13] = human; remark: listed apart in the source
[14] = Presence of at least one case with successful reintroduction. [column 'REINT' in source]; settings: human
[15] = human, serum; remark: listed apart in the source
[16] = Proposed mechanism(s) of liver damage. [column 'MEC' in source]; settings: human
[17] = human; remark: listed apart in the source
[18] = human; remark: listed apart in the source
[19] = human; remark: listed apart in the source
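Throughout, for Hepatotoxicity (association with vascular disease): count of indexed literature references reporting vascular liver injury in humans, e.g. peliosis hepatitis, hepatic veno-occlusive disease or Budd-Chiari syndrome.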
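Throughout, for Hepatotoxicity (benign tumour): value is a count of indexed literature references citing a benign tumour confirmed by histopathology.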
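Throughout, for Hepatotoxicity (choleostasis): human cholestatic liver injury, shown by histopathology or by peak ALT or AST elevation over alkaline phosphatase ratio below 2, value counts indexed literature reports.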
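Throughout, for Hepatotoxicity (chronic liver disease): chronic liver injury confirmed by histopathology or persistently raised serum aminotransferase activity beyond 6 months, value given as the count of indexed literature references.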
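Throughout, for Hepatotoxicity (cirrhosis): value is a count of indexed literature references reporting cirrhosis confirmed by histopathology.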
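Throughout, for Hepatotoxicity (cytolytic): human cytolytic liver injury, shown by histopathology or by a ratio above 5 of peak ALT or AST elevation to alkaline phosphatase elevation, value counts indexed references.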
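Throughout, for Hepatotoxicity (granulomatous hepatitis): value is a count of indexed literature references reporting granulomatous liver disease confirmed by histopathology.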
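Throughout, for Hepatotoxicity (malignant tumour): malignant tumour confirmed by histopathology, value gives the count of indexed literature references reporting it.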
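Throughout, for Hepatotoxicity (severe hepatitis): human clinical data: severe hepatitis, meaning potentially life-threatening liver failure or clinically observed cases, the value counts how many indexed literature references report it.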
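Throughout, for Hepatotoxicity (steatosis): steatosis confirmed by histopathology, value is the count of indexed references.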

Molecule | Hepatotoxicity (moderate) [1] | Hepatotoxicity (time to onset) [2] | Hepatotoxicity (steatosis) [3] | Hepatotoxicity (association with vascular disease) [4] | Hepatotoxicity (granulomatous hepatitis) [5] | Hepatotoxicity (comment) [6] | Hepatotoxicity (moderate) [7] [%] | Hepatotoxicity (chronic liver disease) [8] | Hepatotoxicity (benign tumour) [9] | Hepatotoxicity (animal toxicity known) [10] | Hepatotoxicity (acute) [11] [%] | Hepatotoxicity (choleostasis) [12] | Hepatotoxicity (severe hepatitis) [13] | Hepatotoxicity (successful reintroduction) [14] | Hepatotoxicity (acute) [15] | Hepatotoxicity (mechanism) [16] | Hepatotoxicity (malignant tumour) [17] | Hepatotoxicity (cytolytic) [18] | Hepatotoxicity (cirrhosis) [19]
CO[C@H]1C[C@H](O[C@H]2[C@H](C)[C@@H](O[C@@H]3O[C@H](C)C[C@H](N(C)C)[C@H]3OC(C)=O)[C@@H](C)C[C@@]3(CO3)C(=O)[C@H](C)[C@@H](OC(C)=O)[C@@H](C)[C@@H](C)OC(=O)[C@@H]2C)O[C@@H](C)[C@@H]1OC(C)=O [TROLEANDOMYCIN] | 15 | 3 days - 2 weeks | 0 | 0 | 0 | CHOLANGITE I/PILULE/RIFAMPICINE RC/ERYTHROMYCINE | 83.3 | 0 | 0 | yes | 4 | 26 | 0 | yes | 27 | Allergic, Dose-dependant | 0 | 2 | 0
CC[C@]1(O)C[C@H]2CN(CCc3c([nH]c4ccccc34)[C@@](C(=O)OC)(c3cc4c(cc3OC)N(C=O)[C@H]3[C@@](O)(C(=O)OC)[C@H](OC(C)=O)[C@]5(CC)C=CCN6CC[C@]43[C@@H]65)C2)C1 [VINCRISTINE] | 3 | 3 days - 20 days | 0 | 7 | 0 | I/RADIOTHERAPIE REACTIVATION_HVB | 7.3 | 0 | 0 | yes | 0 | 0 | 4 | yes | 5 | Dose-dependant | 1 | 4 | 0
ALDESLEUKIN | 58 | 1 day - 2 years | 1 | 0 | 0 | CHOLECYSTITE PERICHOLANGITE | 100 | 0 | 0 | yes | 35.7 | 6 | 1 | yes | 14 | Allergic, Dose-dependant | 0 | 6 | 1
CISPLATIN | 23 | 1 day - 2 weeks | 1 | 2 | 0 | CHOLANGITE/IAH | 93 | 0 | 0 | yes | 7 | 1 | 1 | yes | 3 | Dose-dependant | 0 | 2 | 0
